In ChEMBL document CHEMBL1614632, “Trend analysis of a database of intravenous pharmacokinetic parameters in humans for 670 drug compounds” (Drug Metab Dispos, 2008):

What was measured:
clinical [1] = conditions: human, in vivo, iv, t1/2
clinical [2] = conditions: human, in vivo, iv, Vdss
clinical [3] = conditions: human, in vivo, iv, CL
clinical [4] = conditions: human, in vivo, iv

c1ccc(C2(c3ccccc3)CC2C2=NCCN2)cc1 (configuration not stated) [CIFENLINE]
half-life (clinical [1]): 7.3 h | Vd (clinical [2]): 4.1 L/kg | clearance (clinical [3]): 8.6 mL/min/kg | MRT (clinical [4]): 7.8 h

COc1ccc([C@]2(C#N)CC[C@@H](C(=O)O)CC2)cc1OC1CCCC1 [CILOMILAST]
half-life (clinical [1]): 7.9 h | Vd (clinical [2]): 0.23 L/kg | clearance (clinical [3]): 0.5 mL/min/kg | MRT (clinical [4]): 8.5 h

CN/C(=N/CCSCc1nc[nH]c1C)NC#N [CIMETIDINE]
half-life (clinical [1]): 2.2 h | Vd (clinical [2]): 1.2 L/kg | clearance (clinical [3]): 8.1 mL/min/kg | MRT (clinical [4]): 2.5 h

CC[C@H]1OC(=O)[C@H](C)[C@@H](O[C@H]2C[C@@](C)(OC)[C@@H](O)[C@H](C)O2)[C@H](C)[C@@H](O[C@@H]2O[C@H](C)C[C@H](N(C)C)[C@H]2O)[C@](C)(OC)C[C@@H](C)C(=O)[C@H](C)[C@@H](O)[C@]1(C)O [CLARITHROMYCIN]
half-life (clinical [1]): 2.8 h | Vd (clinical [2]): 1.5 L/kg | clearance (clinical [3]): 7.3 mL/min/kg | MRT (clinical [4]): 3.4 h

O=C(O)[C@H]1/C(=C/CO)O[C@@H]2CC(=O)N21 [CLAVULANIC ACID]
half-life (clinical [1]): 0.9 h | Vd (clinical [2]): 0.22 L/kg | clearance (clinical [3]): 3.1 mL/min/kg | MRT (clinical [4]): 1 h

NC1CCN(c2c(F)cc3c(=O)c(C(=O)O)cn(C4CC4)c3c2Cl)C1 (configuration not stated) [CLINAFLOXACIN]
half-life (clinical [1]): 5.4 h | Vd (clinical [2]): 1.9 L/kg | clearance (clinical [3]): 4.7 mL/min/kg | MRT (clinical [4]): 6.7 h

O=C1CN=C(c2ccccc2Cl)c2cc([N+](=O)[O-])ccc2N1 [CLONAZEPAM]
half-life (clinical [1]): 38 h | Vd (clinical [2]): 2.9 L/kg | clearance (clinical [3]): 0.88 mL/min/kg | MRT (clinical [4]): 55 h

O=C(O)C1N=C(c2ccccc2)c2cc(Cl)ccc2NC1=O (configuration not stated) [CLORAZEPIC ACID]
half-life (clinical [1]): 2.4 h | Vd (clinical [2]): 0.2 L/kg | clearance (clinical [3]): 1.1 mL/min/kg | MRT (clinical [4]): 3 h

CN1C(=O)CC[C@H]1c1cccnc1 [COTININE]
half-life (clinical [1]): 17 h | Vd (clinical [2]): 1.1 L/kg | clearance (clinical [3]): 0.89 mL/min/kg | MRT (clinical [4]): 21 h

O=C1CN(/N=C/c2ccc(-c3ccc([N+](=O)[O-])cc3)o2)C(O)=N1 [DANTROLENE]
half-life (clinical [1]): 10 h | Vd (clinical [2]): 0.37 L/kg | clearance (clinical [3]): 0.43 mL/min/kg | MRT (clinical [4]): 14 h

Nc1ncn([C@H]2C[C@H](O)[C@@H](CO)O2)c(=O)n1 [DECITABINE]
half-life (clinical [1]): 0.58 h | Vd (clinical [2]): 4.6 L/kg | clearance (clinical [3]): 130 mL/min/kg | MRT (clinical [4]): 0.59 h

CCC(CC)COC(C(=O)OCCN(C)C)(c1ccccc1)c1ccccc1 [DENAVERINE]
half-life (clinical [1]): 34 h | Vd (clinical [2]): 7.1 L/kg | clearance (clinical [3]): 5.7 mL/min/kg | MRT (clinical [4]): 21 h

NC(=O)CC[C@@H]1NC(=O)[C@H](Cc2ccccc2)NC(=O)[C@H](Cc2ccc(O)cc2)NC(=O)CCSSC[C@@H](C(=O)N2CCC[C@H]2C(=O)N[C@H](CCCN=C(N)N)C(=O)NCC(N)=O)NC(=O)[C@H](CC(N)=O)NC1=O [DESMOPRESSIN]
half-life (clinical [1]): 3 h | Vd (clinical [2]): 0.3 L/kg | clearance (clinical [3]): 1.4 mL/min/kg | MRT (clinical [4]): 3.6 h

CCCCCN(CCCOC)C(=O)[C@@H](CCC(=O)O)NC(=O)c1ccc(Cl)c(Cl)c1 [DEXLOXIGLUMIDE]
half-life (clinical [1]): 1.2 h | Vd (clinical [2]): 0.18 L/kg | clearance (clinical [3]): 3.7 mL/min/kg | MRT (clinical [4]): 0.79 h

COC(=O)C1=C(C)NC(C)=C(C(=O)OCCCN2CCC(c3ccccc3)(c3ccccc3)CC2)[C@@H]1c1cccc([N+](=O)[O-])c1 [DEXNIGULDIPINE]
half-life (clinical [1]): 22 h | Vd (clinical [2]): 8.4 L/kg | clearance (clinical [3]): 9.3 mL/min/kg | MRT (clinical [4]): 15 h

CC1=NS(=O)(=O)c2cc(Cl)ccc2N1 [DIAZOXIDE]
half-life (clinical [1]): 48 h | Vd (clinical [2]): 0.21 L/kg | clearance (clinical [3]): 0.06 mL/min/kg | MRT (clinical [4]): 58 h

O=C(O)C(Cl)Cl [DICHLOROACETIC ACID]
half-life (clinical [1]): 0.65 h | Vd (clinical [2]): 0.19 L/kg | clearance (clinical [3]): 5.3 mL/min/kg | MRT (clinical [4]): 0.6 h

O=C(O)Cc1ccccc1Nc1c(Cl)cccc1Cl [DICLOFENAC]
half-life (clinical [1]): 1.4 h | Vd (clinical [2]): 0.22 L/kg | clearance (clinical [3]): 3.5 mL/min/kg | MRT (clinical [4]): 1 h

Cc1onc(-c2c(Cl)cccc2Cl)c1C(=O)N[C@@H]1C(=O)N2[C@@H]1SC(C)(C)[C@@H]2C(=O)O [DICLOXACILLIN]
half-life (clinical [1]): 0.88 h | Vd (clinical [2]): 0.11 L/kg | clearance (clinical [3]): 2 mL/min/kg | MRT (clinical [4]): 0.92 h

C[C@H]1O[C@@H](O[C@H]2[C@@H](O)C[C@H](O[C@H]3[C@@H](O)C[C@H](O[C@H]4CC[C@@]5(C)[C@H](CC[C@@H]6[C@@H]5C[C@@H](O)[C@]5(C)[C@@H](C7=CC(=O)OC7)CC[C@]65O)C4)O[C@@H]3C)O[C@@H]2C)C[C@H](O)[C@@H]1O [DIGOXIN]
half-life (clinical [1]): 38 h | Vd (clinical [2]): 4.1 L/kg | clearance (clinical [3]): 1.7 mL/min/kg | MRT (clinical [4]): 40 h

CCN1CC(CCN2CCOCC2)C(c2ccccc2)(c2ccccc2)C1=O (configuration not stated) [DOXAPRAM]
half-life (clinical [1]): 4.1 h | Vd (clinical [2]): 1.2 L/kg | clearance (clinical [3]): 5.3 mL/min/kg | MRT (clinical [4]): 3.7 h

CN(C)CCC=C1c2ccccc2COc2ccccc21 [DOXEPIN]
half-life (clinical [1]): 15 h | Vd (clinical [2]): 12 L/kg | clearance (clinical [3]): 14 mL/min/kg | MRT (clinical [4]): 15 h

C[C@H]1O[C@@H](n2cc(F)c(=O)[nH]c2=O)[C@H](O)[C@@H]1O [DOXIFLURIDINE]
half-life (clinical [1]): 0.35 h | Vd (clinical [2]): 0.28 L/kg | clearance (clinical [3]): 11 mL/min/kg | MRT (clinical [4]): 0.46 h

COc1cccc2c1C(=O)c1c(O)c3c(c(O)c1C2=O)C[C@@](O)(C(=O)CO)C[C@@H]3O[C@H]1C[C@H](N)[C@H](O)[C@H](C)O1 [DOXORUBICIN]
half-life (clinical [1]): 32 h | Vd (clinical [2]): 22 L/kg | clearance (clinical [3]): 15 mL/min/kg | MRT (clinical [4]): 24 h

C[C@H]1c2cccc(O)c2C(=O)C2=C(O)[C@]3(O)C(=O)C(C(N)=O)=C(O)[C@@H](N(C)C)[C@@H]3[C@@H](O)[C@@H]21.O [DOXYCYCLINE]
half-life (clinical [1]): 14 h | Vd (clinical [2]): 0.69 L/kg | clearance (clinical [3]): 0.46 mL/min/kg | MRT (clinical [4]): 25 h

CCOc1ccc(/C=C2\NCCc3cc(OCC)c(OCC)cc32)cc1OCC [DROTAVERINE]
half-life (clinical [1]): 9.3 h | Vd (clinical [2]): 1.9 L/kg | clearance (clinical [3]): 3.5 mL/min/kg | MRT (clinical [4]): 9 h

Cn1c(=O)c2c(ncn2CC(O)CO)n(C)c1=O (configuration not stated) [DYPHYLLINE]
half-life (clinical [1]): 1.7 h | Vd (clinical [2]): 0.42 L/kg | clearance (clinical [3]): 4.8 mL/min/kg | MRT (clinical [4]): 1.5 h

CC[N+](C)(C)c1cccc(O)c1.[Br-] [EDROPHONIUM BROMIDE]
half-life (clinical [1]): 1.8 h | Vd (clinical [2]): 1.1 L/kg | clearance (clinical [3]): 9.6 mL/min/kg | MRT (clinical [4]): 1.9 h

C[C@H](N[C@@H](CCc1ccccc1)C(=O)O)C(=O)N1CCC[C@H]1C(=O)O [ENALAPRILAT ANHYDROUS]
half-life (clinical [1]): 39 h | Vd (clinical [2]): 0.38 L/kg | clearance (clinical [3]): 1.6 mL/min/kg | MRT (clinical [4]): 4 h

COc1ccc(C(=O)Nc2ccccc2CCC2CCCCN2C)cc1 (configuration not stated) [ENCAINIDE]
half-life (clinical [1]): 2.6 h | Vd (clinical [2]): 2.2 L/kg | clearance (clinical [3]): 13 mL/min/kg | MRT (clinical [4]): 2.8 h

N/N=c1/cc2c(n[nH]1)CCN(C(=O)c1ccccc1)C2 [ENDRALAZINE]
half-life (clinical [1]): 5.6 h | Vd (clinical [2]): 2.2 L/kg | clearance (clinical [3]): 13 mL/min/kg | MRT (clinical [4]): 2.7 h

Cc1cc(-n2cccc2)c(S(C)(=O)=O)cc1C(=O)NC(=N)N [ENIPORIDE]
half-life (clinical [1]): 2.2 h | Vd (clinical [2]): 1.1 L/kg | clearance (clinical [3]): 8.2 mL/min/kg | MRT (clinical [4]): 2.3 h

CC(C)(C)NC(=O)[C@H]1CC[C@H]2[C@@H]3CC=C4C=C(C(=O)O)CC[C@]4(C)[C@H]3CC[C@]12C [EPRISTERIDE]
half-life (clinical [1]): 27 h | Vd (clinical [2]): 0.54 L/kg | clearance (clinical [3]): 0.33 mL/min/kg | MRT (clinical [4]): 27 h

CCCCc1ncc(/C=C(\Cc2cccs2)C(=O)O)n1Cc1ccc(C(=O)O)cc1 [EPROSARTAN]
half-life (clinical [1]): 2.1 h | Vd (clinical [2]): 0.17 L/kg | clearance (clinical [3]): 1.9 mL/min/kg | MRT (clinical [4]): 1.5 h

CCCCCC/C=C\CCCCCCCCCC(=O)N[C@H]1[C@H](OC[C@H]2O[C@H](OP(=O)(O)O)[C@H](NC(=O)CC(=O)CCCCCCCCCCC)[C@@H](OCCCCCCCCCC)[C@@H]2O)O[C@H](COC)[C@@H](OP(=O)(O)O)[C@@H]1OCC[C@@H](CCCCCCC)OC [ERITORAN]
half-life (clinical [1]): 51 h | Vd (clinical [2]): 0.048 L/kg | clearance (clinical [3]): 0.013 mL/min/kg | MRT (clinical [4]): 62 h

C[C@]12CC[C@@H]3c4ccc(OC(=O)N(CCCl)CCCl)cc4CC[C@H]3[C@@H]1CC[C@@H]2OP(=O)(O)O [ESTRAMUSTINE PHOSPHATE]
half-life (clinical [1]): 2.4 h | Vd (clinical [2]): 0.12 L/kg | clearance (clinical [3]): 0.94 mL/min/kg | MRT (clinical [4]): 2.1 h

C=C(CC)C(=O)c1ccc(OCC(=O)O)c(Cl)c1Cl [ETHACRYNIC ACID]
half-life (clinical [1]): 0.5 h | Vd (clinical [2]): 0.26 L/kg | clearance (clinical [3]): 8.73 mL/min/kg | MRT (clinical [4]): 0.5 h

CCNCC(O)c1cccc(O)c1 (configuration not stated) [ETILEFRINE]
half-life (clinical [1]): 2.2 h | Vd (clinical [2]): 2.1 L/kg | clearance (clinical [3]): 14 mL/min/kg | MRT (clinical [4]): 2.5 h
